Where two headings read alike, the source gives them in different places.
Experiments:
Type in all cases: cell-based
[1] = target: T1, human CCR1 (Homo sapiens, UniProt P32246); test: RANTES-induced CCR1/HEK-293 transfectant migration
T1 construct: expressed in transfected cells; host or cells: HEK-293
T1 sequence (P32246 1-355): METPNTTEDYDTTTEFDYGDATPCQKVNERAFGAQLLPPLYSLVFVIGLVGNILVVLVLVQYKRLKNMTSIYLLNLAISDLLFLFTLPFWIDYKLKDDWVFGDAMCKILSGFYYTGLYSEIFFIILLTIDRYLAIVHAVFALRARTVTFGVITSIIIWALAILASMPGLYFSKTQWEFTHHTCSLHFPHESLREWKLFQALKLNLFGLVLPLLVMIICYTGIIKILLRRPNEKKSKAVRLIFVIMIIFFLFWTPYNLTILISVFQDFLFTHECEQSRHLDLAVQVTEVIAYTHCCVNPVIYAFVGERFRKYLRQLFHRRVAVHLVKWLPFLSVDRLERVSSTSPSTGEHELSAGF
Experimental: Human embryonic kidney cells 293 (HEK-293) transfected to express human CCR1, CCR3, or CCR5 receptors were cultured in Dulbecco's Modified Eagles Medium (DMEM, Biowhiftaker, Walkersville, Md.) containing 10% Fetal Bovine Serum (FBS, Hyclone, Logan, Utah), 2 mM glutamine and 100 U/ml penicillin and streptomycin (Quality Biologicals, Gaithersburg, Md.). Peripheral blood mononuclear cells were isolated from fresh normal donor apheresis packs by centrifugation over Ficoll.
(§1) The number of cells migrating to the chemokine mixtures was determined for binding media alone, and chemokine treated and untreated cells. HEK-293 cells transfected to express human CCR1, CCR3 or CCR5 receptors were resuspended in binding media at 7.5×10^5 cells/ml. Ten μm polyvinyl-free polycarbonate membranes (Neuro Probe) were treated with 47 ug/ml rat tail collagen type 1 (Collaborative Biomedical Products, Bedford, Md.) in RPMI-1640 overnight, dried and placed over the chemoattractants. The assembled chemotaxis chambers were incubated in a humidified CO2 incubator for 5.5–6 hours. After the incubation, the membranes were removed from the chemotaxis chamber assembly followed by gently removing cells from the upper side of the membrane. The stained and dried membrane was mounted and the cells on the underside of the membrane were counted at 200× magnification.

[2] = test system: human monocytes (RANTES-induced migration); test: RANTES-induced monocyte migration (micro-chemotaxis chamber); conditions: for IC50: Homo sapiens, Monocyte, ≦ 5% standard error, NA = not active; for activity as inhibitors of RANTES-induced migration: discussion of Table 1
Experimental: (§2) Human embryonic kidney cells 293 (HEK-293) transfected to express human CCR1, CCR3, or CCR5 receptors were cultured in Dulbecco's Modified Eagles Medium (DMEM, Biowhiftaker, Walkersville, Md.) containing 10% Fetal Bovine Serum (FBS, Hyclone, Logan, Utah), 2 mM glutamine and 100 U/ml penicillin and streptomycin (Quality Biologicals, Gaithersburg, Md.). Peripheral blood mononuclear cells were isolated from fresh normal donor apheresis packs by centrifugation over Ficoll. Monocytes were enriched by 85–95% using percoll fractionation (Pharmacia, Piscataway, N.J.).
(§3) Monocyte chemotaxis was performed as previously described [Wang (1993) J. Immunol. 150:3022–3029]. Briefly, monocytes were resuspended in binding media (RPMI-1640 media containing 1% BSA, 25 mM HEPES, pH 8.0) at 1–2×10^6 cells/ml. Chemokines, diluted in binding media, were mixed with cosalane or the indicated cosalane analog and placed in the lower wells of a micro-chemotaxis chamber (Neuro Probe, Cabin John, Md.). Five micrometer polyvinyl-free polycarbonate membranes were placed over the chemokine mixtures. After the micro-chemotaxis chamber was assembled, 50 μl of cells were placed in the upper wells. The filled chemotaxis chambers were incubated in a humidified CO2 incubator for 90 minutes.
(§4) After incubating, the membranes were removed from the chemotaxis chamber assembly followed by gently removing the cells from the upper side of the membrane. Then cells on the lower side of the membrane were stained.
as §1, with “magnification. The results are reported as the average number of cells per high powered field at a given chemokine concentration±standard deviation.” for “magnification.”

[3] = target: T2, human CCR3 (Homo sapiens, UniProt P51677); test: eotaxin-induced CCR3/HEK-293 cell migration; conditions: eotaxin-induced CCR3/HEK-293 migration, figures
T2 construct: expressed in transfected cells; host or cells: HEK-293
T2 sequence (P51677 1-355): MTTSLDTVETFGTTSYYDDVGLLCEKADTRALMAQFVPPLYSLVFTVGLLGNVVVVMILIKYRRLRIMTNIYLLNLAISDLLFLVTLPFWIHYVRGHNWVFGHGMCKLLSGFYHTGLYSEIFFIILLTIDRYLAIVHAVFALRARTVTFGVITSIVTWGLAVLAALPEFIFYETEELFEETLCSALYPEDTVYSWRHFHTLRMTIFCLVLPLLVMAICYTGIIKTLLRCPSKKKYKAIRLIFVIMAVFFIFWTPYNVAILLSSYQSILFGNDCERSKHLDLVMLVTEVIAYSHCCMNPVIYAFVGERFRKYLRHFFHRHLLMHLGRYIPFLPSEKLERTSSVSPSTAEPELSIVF
Experimental: as §2
as §1, with “magnification. The results are reported as the average number of cells per high powered field at a given chemokine concentration±standard deviation.” for “magnification.”

[4] = test system: MCP-4/CCR2-mediated monocyte migration; test: MCP-4-induced human monocyte migration; conditions: FIG. 3
Experimental: as §3, §4
as §1, with “magnification. The results are reported as the average number of cells per high powered field at a given chemokine concentration±standard deviation.” for “magnification.”
Although MCP-4 is known to bind to CCR2 and CCR3, fresh primary human monocytes only express high levels of CCR2.

[5] = target: T1, human CCR1; test: MIP1α-induced migration of CCR1 transfectants; conditions: compound at 1 μM, data not shown
Experimental: as §2
as §1, with “magnification. The results are reported as the average number of cells per high powered field at a given chemokine concentration±standard deviation.” for “magnification.”
(§5) The ability of compound 3 to inhibit RANTES-induced migration of human embryonic kidney (HEK) cells transfected to express individual chemokine receptors was initially tested. Although the cosalane analog 3 (1 μM) had no effect on RANTES-induced migration of CCR5 transfectants, it inhibited 50% of RANTES-induced CCR1 transfectant migration (FIG. 2). In contrast, the MIP1α- and MIP1β-induced migration of CCR1 transfectants was not inhibited by compounds 1, 2 or 3 when tested at concentrations of 1 μM (data not shown).

[6] = test system: human monocytes (acetylated RANTES-induced migration); test: monocyte migration induced by acetylated (modified) RANTES; conditions: acetylated RANTES 50–1000 ng/mL, FIG. 6
Experimental: as §3, §4
as §1, with “magnification. The results are reported as the average number of cells per high powered field at a given chemokine concentration±standard deviation. […]” for “magnification.”

[7] = target: T1, human CCR1; test: MIP1β-induced migration of CCR1 transfectants; conditions: compound at 1 μM, data not shown
Experimental: as §2
as §1, with “magnification. The results are reported as the average number of cells per high powered field at a given chemokine concentration±standard deviation.” for “magnification.”
as §5

[8] = test system: human monocytes (MIP1-β-induced migration); test: MIP1-β-induced monocyte migration; conditions: compound at 1 μM, chemokine at 2.5 ng/ml, data not shown
Experimental: (§6) Monocyte chemotaxis was performed as previously described [Wang (1993) J. Immunol. 150:3022–3029]. Briefly, monocytes were resuspended in binding media (RPMI-1640 media containing 1% BSA, 25 mM HEPES, pH 8.0) at 1–2×10^6 cells/ml. […] Five micrometer polyvinyl-free polycarbonate membranes were placed over the chemokine mixtures. After the micro-chemotaxis chamber was assembled, 50 μl of cells were placed in the upper wells. The filled chemotaxis chambers were incubated in a humidified CO2 incubator for 90 minutes.
as §4, §1
(§7) It is noted that both MIP1-α and MIP1-β are ligands for CCR1, CCR5, and D6 (8).

[9] = test system: human monocytes (MIP1-α-induced migration); test: MIP1-α-induced monocyte migration; conditions: compound at 1 μM, chemokine at 2.5 ng/ml, data not shown
Experimental: as §6, §4, §1, §7

[10] = ≦ 5% standard error, NA = not active, read-out: IC50 (μM) RANTES-Induced CCRI/HEK Migration

Compound | IC50 [1, 10] [µM] | IC50 [2] [µM] | inhibition of CCL11 (eotaxin) interaction with CCR3 [3] | activity as inhibitors of RANTES-induced migration [2] | also measured
CC(C)CCCC(C)[C@H]1CCC2C3CCC4C[C@@H](CCC=C(c5cc(Cl)c(OCc6cccc(B(O)O)c6)c(C(=O)O)c5)c5cc(Cl)c(OCc6cccc(B(O)O)c6)c(C(=O)O)c5)CC[C@]4(C)C3CC[C@@]21C (stereo partly drawn) [Compound 9] | 4 | 2.2 | inhibit |  | 
CC(C)CCC[C@@H](C)[C@H]1CC[C@H]2[C@@H]3CC[C@H]4C[C@@H](CCC=C(c5cc(Cl)c(O)c(C(=O)O)c5)c5cc(Cl)c(O)c(C(=O)O)c5)CC[C@]4(C)[C@H]3CC[C@]12C [Compound 1, cosalane] | 0.26 | 0.76 | inhibit |  | block of MCP-4/CCR2-mediated monocyte migration [4]: block; inhibition of MIP1α-induced migration of CCR1 transfectants [5]: not inhibited; inhibition of the activity of modified (acetylated) RANTES to attract monocytes ([6]; 30 μM compound): not inhibited; inhibition of MIP1β-induced migration of CCR1 transfectants [7]: not inhibited
CC(C)CCCC(C)[C@H]1CCC2C3CCC4C[C@@H](CCC=C(c5cc(Cl)c(OCc6cccc([N+](=O)[O-])c6)c(C(=O)O)c5)c5cc(Cl)c(OCc6cccc([N+](=O)[O-])c6)c(C(=O)O)c5)CC[C@]4(C)C3CC[C@@]21C (stereo partly drawn) [Compound 7] |  | 3.5 |  | retain activity | IC50 [1]: 5.7 µM
CC(C)CCCC(C)[C@H]1CCC2C3CCC4C[C@@H](CCC=C(c5cc(Cl)c(O)c(C(=O)NCC(=O)O)c5)c5cc(Cl)c(O)c(C(=O)NCC(=O)O)c5)CC[C@]4(C)C3CC[C@@]21C (stereo partly drawn) [Compound 12] |  |  |  |  | IC50 [1]: 10 µM
CC(C)CCCC(C)C1CCC2C3CCC4CC(CCC=C(c5cc(Cl)c(OCc6ccc(C(=O)O)cc6)c(C(=O)O)c5)c5cc(Cl)c(OCc6ccc(C(=O)O)cc6)c(C(=O)O)c5)CCC4(C)C3CCC12C (stereo not drawn) [Compound 5] |  |  |  | inactive | inhibition of MIP1-β-induced monocyte migration [8]: neither MiP1-α- nor MIP1-β-induced monocyte migration was inhibited; inhibition of MIP1-α-induced monocyte migration [9]: neither MiP1-α- nor MIP1-β-induced monocyte migration was inhibited; inhibition of the activity of modified (acetylated) RANTES to attract monocytes ([6]; 10 μM compound): no statistical difference
CC(C)CCCC(C)[C@H]1CCC2C3CCC4C[C@@H](CCC=C(c5cc(Cl)c(OCc6cccc(C(=O)O)c6)c(C(=O)O)c5)c5cc(Cl)c(OCc6cccc(C(=O)O)c6)c(C(=O)O)c5)CC[C@]4(C)C3CC[C@@]21C (stereo partly drawn) [Compound 2] | 10 | 10 | inhibit | retain activity | inhibition of MIP1-β-induced monocyte migration [8]: very weak inhibitor; reduction in cell numbers, MIP1-β-induced monocyte migration [8]: less than 10%; block of MCP-4/CCR2-mediated monocyte migration [4]: block; inhibition of MIP1α-induced migration of CCR1 transfectants [5]: not inhibited; inhibition of MIP1-α-induced monocyte migration [9]: not reduced; inhibition of MIP1β-induced migration of CCR1 transfectants [7]: not inhibited
CSCC[C@H](NC(=O)c1cc(C(=CCC[C@H]2CC[C@@]3(C)C(CCC4C3CC[C@@]3(C)C4CC[C@@H]3C(C)CCCC(C)C)C2)c2cc(Cl)c(O)c(C(=O)N[C@@H](CCSC)C(=O)O)c2)cc(Cl)c1O)C(=O)O (stereo partly drawn) [Compound 15] |  | 0.82 |  | retained activity | 
CC(C)CCCC(C)[C@H]1CCC2C3CCC4C[C@@H](CCC=C(c5cc(Cl)c(OCc6ccc(-c7cccc(C(=O)O)c7)cc6)c(C(=O)O)c5)c5cc(Cl)c(OCc6ccc(-c7cccc(C(=O)O)c7)cc6)c(C(=O)O)c5)CC[C@]4(C)C3CC[C@@]21C (stereo partly drawn) [Compound 6] | 9.1 | 3 |  | retain activity | 

From patent US7122533B2, “Cosalane compounds and methods for their use” (The United States of America as represented by the …, priority 1999, dated 2006)
